Source: patent publication US8034780B2, “Isolation, purification, and structure elucidation of the antiproliferative compound coibamide A” (priority 2007, dated 2011)
Several values for one entry are separate records, joined by “and”; a condition that tells them apart may be missing. Identical values can stand only once. Bridge positions count the residues as written; N and C are the ends. Square brackets hold non-standard residues; d marks the D form. Peptide text beside a SMILES is read from it. * marks the point of attachment. ξ: configuration not given here. NMeI = CC[CH](C)[CH](NC)C(=O)O; ξNMe2Val = CC(C)C(C(=O)*)N(C)C; NMeT = CN[CH](C(=O)O)[CH](C)O; NMeL = CN[CH](CC(C)C)C(=O)O; Hiv = CC(C)[CH](O)C(=O)O; NMeS = CN[CH](CO)C(=O)O; NMeA = CN[CH](C)C(=O)O

Tests used:
[1] = system: neuro-2a mouse neuroblastoma cells; assay: MTT cytotoxicity, neuro-2a cells; type: cell-based; details: mouse/rat NG108-15, N2a, 48 hours, read-out: LC50 (the source's name)
Description: (§1) Cytotoxicity was measured in NCI-H460 human lung tumor cells and neuro-2a mouse neuroblastoma cells using the method of Alley et. al. (Cancer Res. (1988) 48:589-601) with cell viability being determined by 3-(4,5-dimethylthiazol-2-yl)-2,5-diphenyltetrazolium bromide (MTT) reduction (Manger et al. (1995) J. AOAC Int., 78:521-527). Cells were seeded in 96-well plates at 6000 cells/well in 180 μL of RPMI 1640 medium with 10% fetal bovine serum. Twenty-four hours later, the test chemical was dissolved in DMSO, diluted into medium without fetal bovine serum and added at 20 μL/well. DMSO was less than 0.5% of the final concentration. After 48 hours, the medium was removed and cell viability determined.

HT29 (colon cancer) = assay: NCI60 screen, HT29; type: cell-based, human
Description: (§2) Coibamide A was tested against the National Cancer Institute NCI60 tumor cell lines (dtp.nci.nih.gov/branches/btb/ivclsp.html; Shoemaker, R. H. (2006) Nat. Rev. Cancer, 6:813-823), which comprises 60 human cancer cell lines including leukemias, melanomas, ovarian, renal, prostate, breast, colon, lung and central nervous system (CNS) cancers (the data from two screens are provided in FIGS. 3A and 3B). […] Growth inhibition of 50% (GI50) is the drug concentration resulting in a 50% reduction in the net protein increase in control cells during the drug incubation. Similarly, total growth inhibition (TGI) is the drug concentration resulting in zero net protein increase in control cells, and the lethal concentration of 50% (LC50) is the drug concentration resulting in a 50% reduction in the measured protein at the end of the drug treatment as compared to that at the beginning, (a net loss of cells following treatment). […] Coibamide A produced mean cytostatic (GI50 and TGI with range) and cytotoxic (LC50 and range) parameters as follows: log GI50, −8.04 (2.96); log TGI, −5.85 (3.43); log LC50, −5.11 (2.66). These log mean values of <−4 with log range values of >2 indicate both potency and histological selectivity (FIG. 4).

SF-539 (CNS cancer) = assay: NCI60 screen, SF-539; type: cell-based, human
Description: as §2

MDA-MB-435 cells = assay: cell cycle analysis by flow cytometry; type: cell-based; details: 24 hours
Description: For cell cycle analysis, MDA-MB-435 cells were treated for 24 hours with vehicle or sample. The cells were harvested and stained with Krishan's reagent. This suspension was analyzed using a Becton Dickinson FACScan flow cytometer, and the data were plotted as propidium iodide intensity versus the number of events. Quality control samples were run with each assay to ensure instrument linearity and resolution.

SR (leukemia) = assay: NCI60 screen, SR; type: cell-based, human
Description: as §2

T-47D (breast cancer) = assay: NCI60 screen, T-47D; type: cell-based, human
Description: as §2

HOP-92 (NSCLC) = assay: NCI60 screen, HOP-92; type: cell-based, human
Description: as §2

COLO 205 (colon cancer) = assay: NCI60 screen, COLO 205; type: cell-based, human
Description: as §2

M-14 (melanoma) = assay: NCI60 screen, M-14; type: cell-based, human; details: second screen
Description: as §2

A-10 cells = assay: cytoskeletal immunofluorescence study in A-10 cells; type: cell-based
Description: (§3) Cytoskeletal assays were carried out on 1. […] Therefore, it was hypothesized that 1 might cause mitotic abnormalities by a non-tubulin dependent mechanism, and flow cytometry studies were initiated to look at the effect of the compound on cell cycle distribution (FIG. 2).

[2] = system: histone deacetylase (HDAC); assay: HDAC inhibition; type: biochemical
RXF 393 (renal cancer) = assay: NCI60 screen, RXF 393; type: cell-based, human; details: second screen
Description: as §2

HCC-2998 (colon cancer) = assay: NCI60 screen, HCC-2998; type: cell-based, human
Description: as §2

SK-MEL-5 (melanoma) = assay: NCI60 screen, SK-MEL-5; type: cell-based, human
Description: as §2

[3] = system: National Cancer Institute NCI60 tumor cell lines; assay: NCI60 tumor cell line panel; type: cell-based, human
Description: as §2

[4] = system: HeLa cervical cancer cells; assay: immunofluorescence study in HeLa cells; type: cell-based
Description: as §3

[5] = system: NCI-H460 human lung tumor cells; assay: MTT cytotoxicity, NCI-H460 cells; type: cell-based; details: 48 hours, read-out: LC50 (the source's name)
Description: as §1

HL60(TB) (leukemia) = assay: NCI60 screen, HL60(TB); type: cell-based, human; details: second screen
[6] = system: MDA-MB-231/ATCC (breast cancer); assay: NCI60 screen, MDA-MB-231/ATCC; type: cell-based, human
Description: as §2

LOX IMVI (melanoma) = assay: NCI60 screen, LOX IMVI; type: cell-based, human
Description: as §2

SK-OV-3 (ovarian cancer) = assay: NCI60 screen, SK-OV-3; type: cell-based, human; details: first screen
Description: as §2

SF-295 (CNS cancer) = assay: NCI60 screen, SF-295; type: cell-based, human; details: first screen
Description: as §2

[7] = system: MDA-MB-435 (breast cancer); assay: NCI60 screen, MDA-MB-435; type: cell-based, human; details: second screen
Description: as §2

A498 (renal cancer) = assay: NCI60 screen, A498; type: cell-based, human; details: second screen
Description: as §2

SNB-75 (CNS cancer) = assay: NCI60 screen, SNB-75; type: cell-based, human; details: second screen
Description: as §2

UACC-62 = assay: NCI60 screen, UACC-62; type: cell-based, human; details: second screen
Description: as §2

[8] = mean over the panel, log range in brackets, preliminary

## CCC(C)C1C(=O)NC(C)C(=O)N(C)C(CC(C)C)C(=O)NC(Cc2ccc(OC)cc2)C(=O)N(C)C(C)C(=O)OC(C)C(N(C)C(=O)C(CC(C)C)N(C)C(=O)C(COC)N(C)C(=O)C(OC(=O)C(C(C)C)N(C)C)C(C)C)C(=O)N(C)C(COC)C(=O)N1C (centres unmarked) [Coibamide A] (ξNMe2Val-[Hiv][NMeS](Me)[NMeL][NMeT][NMeS](Me)[NMeI]A[NMeL]Y(Me)[NMeA]; ester 4-C; configuration not given here)
[1]
  CC50: > 0.03 µg/mL and > 23 nM
HT29 (colon cancer); Homo sapiens, HT-29, NCI60 screen
  LC50 (concentration giving 50% net cell loss): 93.3 nM
HT29 (colon cancer); Homo sapiens, HT-29, undefined activity
  GI50: < 1 nM
HT29 (colon cancer); first screen
  TGI: 10.4 nM
HT29 (colon cancer); second screen
  TGI: 14.6 nM
SF-539 (CNS cancer); first screen
  TGI: 30.3 nM
SF-539 (CNS cancer); second screen
  TGI: 28.7 nM
MDA-MB-435 cells
  cells in G2/M: no change in G2/M
  mitotic accumulation: does not cause any significant mitotic accumulation
MDA-MB-435 cells; dose dependent
  cells in G1 phase: large increase in the number of cells in G1 phase
  cells in S phase: reduction of cells in S phase
SR (leukemia); first screen
  TGI: 16.6 nM
SR (leukemia); second screen
  TGI: 87.0 nM
T-47D (breast cancer); Homo sapiens, T47D, undefined activity
  GI50: < 1 nM
T-47D (breast cancer); first screen
  TGI: 5.4 nM
HOP-92 (NSCLC); first screen
  TGI: 25.4 nM
HOP-92 (NSCLC); second screen
  TGI: 11.4 nM
COLO 205 (colon cancer); Homo sapiens, COLO 205, NCI60 screen, read-out: LC50 (the source's name)
  CC50: 35.8 nM
COLO 205 (colon cancer); first screen
  TGI: 4.9 nM
COLO 205 (colon cancer); second screen
  TGI: 15.7 nM
M-14 (melanoma)
  TGI: 11.2 nM
A-10 cells
  microtubule changes: did not show any of the expected microtubule changes
  mitotic spindles: some monopolar mitotic spindles were observed
[2]
  HDAC inhibitor activity: no significant activity
RXF 393 (renal cancer)
  TGI: 82.3 nM
HCC-2998 (colon cancer); Homo sapiens, HCC 2998, undefined activity
  GI50: < 1 nM
HCC-2998 (colon cancer); first screen
  TGI: 8.3 nM
HCC-2998 (colon cancer); second screen
  TGI: 93.7 nM
SK-MEL-5 (melanoma); Homo sapiens, SK-MEL-5, undefined activity
  GI50: < 1 nM
SK-MEL-5 (melanoma); first screen
  TGI: 6.0 nM
SK-MEL-5 (melanoma); second screen
  TGI: 26.9 nM
[3]
  activity by cancer type from the mean graph for GI50 values: consistently active against leukemias, CNS, colon, and breast cancer cells
[3]; 53 of the 55 cancer cell lines screened
  GI50 values: Nanomolar or better
[3]; Homo sapiens, mean over the panel, log range in brackets, preliminary, read-out: mean log LC50 (range) (converted)
  CC50: 7760 nM
[3]; [8]
  mean log GI50 (range): −8.04 (2.96)
  mean log TGI (range): −5.85 (3.43)
[4]; 100 nM concentration
  mitotic structures: two aberrant mitotic structures were observed
[4]; immunofluorescence
  phenotypic effects on microtubules or nuclear structures: did not show any expected phenotypic effects on microtubules or on nuclear structures
[5]
  CC50: > 0.03 µg/mL and > 23 nM
HL60(TB) (leukemia)
  TGI: 7.4 nM
[6]; first screen
  TGI: 25.1 nM
[6]; second screen
  TGI: 2.8 nM
LOX IMVI (melanoma); first screen
  TGI: 6.6 nM
LOX IMVI (melanoma); second screen
  TGI: 7.4 nM
SK-OV-3 (ovarian cancer)
  TGI: 9.8 nM
SF-295 (CNS cancer)
  TGI: 21.9 nM
[7]
  TGI: 100 nM
A498 (renal cancer)
  TGI: 74.4 nM
SNB-75 (CNS cancer)
  TGI: 7.6 nM
UACC-62
  TGI: 80.6 nM
